The record followed here is patent publication US9284330B2 (priority 2011, dated 2016).

The test system of data set [1] is L-type Ca2+ channel. In words: Blocking of L-type Ca2+ channel by patch clamp, calcium current in rat dorsal root ganglion cells. The format is cell-based. The note with it: whole cell patch clamp. In general terms: Patch clamp records ionic current or voltage across a cell membrane.
For another data set, the target named is acetylcholinesterase (Electrophorus electricus (Electric eel) (Gymnotus electricus), UniProt O42275). In words: biochemical.
Data set [2] has as its system primary cortical neuron cells. The data set is described as follows: Effect of the compounds on the morphology of neurons (microscopy). The note with it: 0.01 to 1 μM, 24 h.
Data set [3] relates to L-type Ca2+ channel. In words: Blocking of L-type Ca2+ channel by high content screening analyzer, KCl-induced calcium ion influx in SH-SY5Y cells (Fluo-4-AM).
Data set [4] deals with tau protein phosphorylation. Type of data set: cell-based. The note with it: Western blot, 24 h incubation.
Data set [5] has as its system primary cortical neuron cells. The note with it: for Relative neuron activity (average): 24 h incubation; for Toxicity to primary neurons (in words): concentrations tested 0.01, 0.1 and 1 μM, 24 h.

Where two headings read alike, the source gives them in different places.

Sequence of acetylcholinesterase (O42275 whole entry, looked up): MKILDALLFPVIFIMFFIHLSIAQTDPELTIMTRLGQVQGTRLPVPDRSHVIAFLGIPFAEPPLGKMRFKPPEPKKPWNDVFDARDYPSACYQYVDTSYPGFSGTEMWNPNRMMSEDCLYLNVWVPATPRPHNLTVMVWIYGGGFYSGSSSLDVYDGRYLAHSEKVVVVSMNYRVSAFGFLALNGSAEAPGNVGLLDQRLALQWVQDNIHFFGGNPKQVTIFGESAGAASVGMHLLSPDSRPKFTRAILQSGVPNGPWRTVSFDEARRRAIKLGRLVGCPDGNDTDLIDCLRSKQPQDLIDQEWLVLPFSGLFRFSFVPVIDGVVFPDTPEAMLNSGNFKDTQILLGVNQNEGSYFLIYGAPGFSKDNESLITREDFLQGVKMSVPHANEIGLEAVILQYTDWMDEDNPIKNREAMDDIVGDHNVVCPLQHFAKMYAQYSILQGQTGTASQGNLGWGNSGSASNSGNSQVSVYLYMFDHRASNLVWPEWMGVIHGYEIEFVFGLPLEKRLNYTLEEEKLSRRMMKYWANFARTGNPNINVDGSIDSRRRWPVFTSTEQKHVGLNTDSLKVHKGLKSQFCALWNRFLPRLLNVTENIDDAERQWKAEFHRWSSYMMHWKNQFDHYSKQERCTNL

The term IC50 denotes the concentration that inhibits the measured activity by half. A lower IC50 goes with higher potency. For the compound `CCOC(=O)C1=C(C)Nc2nc3c(c(N)c2C1c1ccccc1Cl)CC(C)(C)CC3` (stereo not drawn) [Compound S1, 5-amino-4-(2-chlorphenyl)-2,7,7-trimethyl-1,4,6,7,8,9-hexahydrobenzo[b][1,8]naphthyridine-3-carboxylic acid ethyl ester], the “Inhibition rate of L-type Ca2+ channel current” value in the data set with L-type Ca2+ channel [1] (100 nmol/L compound) was 38.14%; in the data set with L-type Ca2+ channel [1] (1000 nmol/L compound) it was 61.76%. Further, on acetylcholinesterase, the IC50 was 768 nM. The “Effect on the morphology of neurons” value in data set [2] was “no effect on the morphology of neurons”. Further, the results for the “Inhibition rate of KCl-induced calcium ion influx” value in the data set on L-type Ca2+ channel [3] (10 μM compound) and with L-type Ca2+ channel [3] (50 μM compound) were 29.29% and 63.60%, respectively. In addition, the “Intracellular tau protein phosphorylation of neurons” value in data set [4] is “reduced”. Also, the “Relative neuron activity (average)” value in data set [5] (0.01 μM) turned out to be 110.6%; in data set [5] (0.1 μM) it was 113.9%; in data set [5] (1 μM) it was 97.9%. Also, the “Toxicity to primary neurons (in words)” value in data set [5] is listed as “no significant toxicity”.
`CC1=C(C(=O)OC(C)C)C(c2cccc(F)c2)c2c(nc3c(c2N)CC(C)(C)CC3)N1` (stereo not drawn) [Compound S3, 5-amino-4-(3-fluorophenyl)-2,7,7-trimethyl-1,4,6,7,8,9-hexahydrobenzo[b][1,8]napht hyridine-3-carboxylic acid isopropyl ester] registered an IC50 at acetylcholinesterase of 1130 nM. In addition, the “Inhibition rate of KCl-induced calcium ion influx” value with L-type Ca2+ channel [3] (10 μM compound) is 81.33%; with L-type Ca2+ channel [3] (50 μM compound) it was 86.82%. Also, the “Intracellular tau protein phosphorylation of neurons” value in data set [4] was “reduced”. The “Relative neuron activity (average)” value in data set [5] (0.01 μM) is on record as 107.7%; in data set [5] (0.1 μM) it was 102.4%; in data set [5] (1 μM), 98.8%. The “Toxicity to primary neurons (in words)” value in data set [5] was “no significant toxicity”.
`CCOC(=O)C1=C(C)Nc2nc3c(c(N)c2C1c1cccc(Cl)c1)CC(C)(C)CC3` (stereo not drawn) [Compound S6, 5-amino-4-(3-chlorphenyl)-2,7,7-trimethyl-1,4,6,7,8,9-hexahydrobenzo[b][6,8]naphth yridine-3-carboxylic acid ethyl ester] had an IC50 at acetylcholinesterase of 893 nM. Further, the “Inhibition rate of KCl-induced calcium ion influx” value in the data set on L-type Ca2+ channel [3] (10 μM compound) is listed as 11.30%; with L-type Ca2+ channel [3] (50 μM compound), 95.51%. In addition, in data set [4], the “Intracellular tau protein phosphorylation of neurons” value was “reduced”. Besides, the “Relative neuron activity (average)” value is 107.1% in data set [5] (0.01 μM), 105.3% in data set [5] (0.1 μM) and 99.0% in data set [5] (1 μM). Moreover, the “Toxicity to primary neurons (in words)” value in data set [5] is listed as “no significant toxicity”.
At acetylcholinesterase, `CC1=C(C(=O)OC(C)C)C(c2ccccc2F)c2c(nc3c(c2N)CC(C)(C)CC3)N1` (stereo not drawn) [Compound S8, 5-amino-4-(2-fluorophenyl)-2,7,7-trimethyl-1,4,6,7,8,9-hexahydrobenzo[b][1,8]napht hyridine-3-carboxylic acid isopropyl ester] came in with an IC50 of 757 nM. For the same compound, the results for the “Inhibition rate of KCl-induced calcium ion influx” value with L-type Ca2+ channel [3] (10 μM compound) and in the data set on L-type Ca2+ channel [3] (50 μM compound) were 61.63% and 93.28%, respectively. In addition, the “Intracellular tau protein phosphorylation of neurons” value in data set [4] is given as “reduced”. For the same compound, the “Relative neuron activity (average)” value came to 114.7% in data set [5] (0.01 μM), 101.7% in data set [5] (0.1 μM) and 97.7% in data set [5] (1 μM). For the same compound, the “Toxicity to primary neurons (in words)” value in data set [5] is recorded as “no significant toxicity”.
At acetylcholinesterase, `COC(=O)C1=C(C)Nc2nc3c(c(N)c2C1c1cccc([N+](=O)[O-])c1)CCCC3C` (stereo not drawn) [Compound S15, 5-amino-4-(3-nitrophenyl)-2,9-dimethyl-1,4,6,7,8,9-hexahydrobenzo[b][1,8]naphthyridine-3-carboxylic acid methyl ester] displayed an IC50 of 729 nM. In data set [4], the “Intracellular tau protein phosphorylation of neurons” value was “reduced”. The “Relative neuron activity (average)” value in data set [5] (0.01 μM) turned out to be 111.9%; in data set [5] (0.1 μM), 105.8%; in data set [5] (1 μM), 65.9%. Further, the “Toxicity to primary neurons (in words)” value in data set [5] is listed as “minor toxicity”.
Turning to `COC(=O)C1=C(C)Nc2nc3c(c(N)c2C1c1cccc(Cl)c1Cl)CC(C)CC3` (stereo not drawn) [Compound S27, 5-amino-4-(2,3-dichlorophenyl)-2,7-dimethyl-1,4,6,7,8,9-hexahydrobenzo[b][1,8]nap hthyridine-3-carboxylic acid methyl ester], the “Inhibition rate of L-type Ca2+ channel current” value was determined as 39.68% in the data set with L-type Ca2+ channel [1] (100 nmol/L compound) and 65.54% in the data set with L-type Ca2+ channel [1] (1000 nmol/L compound). On acetylcholinesterase, this compound came in with an IC50 of 178 nM. Further, the “Relative neuron activity (average)” value in data set [5] (0.01 μM) is on record as 123.7%; in data set [5] (0.1 μM) it was 102.9%; in data set [5] (1 μM), 43.0%.
`CC1=C(C(=O)OCCN(C)C)C(c2ccccc2)c2c(nc3c(c2N)CC(F)(F)CC3)N1` (stereo not drawn) [Compound S29, 5-amino-7,7-difluoro-2-methyl-4-phenyl-1,4,6,7,8,9-hexahydrobenzo[b][1,8]naphthyr idine-3-carboxylic acid-2-(dimethylamino) ethyl ester]: the “Inhibition rate of L-type Ca2+ channel current” value in the data set with L-type Ca2+ channel [1] (100 nmol/L compound) turned out to be 11.64%; in the data set with L-type Ca2+ channel [1] (1000 nmol/L compound), 23.76%. This compound also displayed an IC50 against acetylcholinesterase of 45 nM. In addition, the “Inhibition rate of KCl-induced calcium ion influx” value in the data set with L-type Ca2+ channel [3] (10 μM compound) amounted to 17.93%; in the data set with L-type Ca2+ channel [3] (50 μM compound), 57.19%.
On to `CC1=C(C(=O)OC(C)C)C(c2ccccc2Cl)c2c(nc3c(c2N)CC(C)(C)CC3)N1` (stereo not drawn) [Compound S32, 5-amino-2,7,7-trimethyl-4-(2-chlorphenyl)-1,4,6,7,8,9-hexahydrobenzo[b][1,8]naphth yridine-3-carboxylic acid isopropyl ester], for which the IC50 against acetylcholinesterase was found to be 6920 nM. The “Inhibition rate of KCl-induced calcium ion influx” value came to 29.49% in the data set on L-type Ca2+ channel [3] (10 μM compound) and 91.10% with L-type Ca2+ channel [3] (50 μM compound). Moreover, the “Intracellular tau protein phosphorylation of neurons” value in data set [4] was “reduced”. The figures for the “Relative neuron activity (average)” value in data set [5] (0.01 μM), in data set [5] (0.1 μM) and in data set [5] (1 μM) were 115.5%, 106.5% and 98.6%, respectively. The “Toxicity to primary neurons (in words)” value in data set [5] is given as “no significant toxicity”.
